Experimental data as given in patent US20130178477A1, “METHODS OF TREATING DIABETIC NEUROPATHY USING BENZENESULFONAMIDES” (AbbVie Inc., priority 2012, published 2013).

Legend:
[1] = Ongoing Phase 2 efficacy and safety study in subjects with diabetic neuropathic pain; format: in vivo, human; settings: 100 mg BID up to 6 weeks
Experimental: (§1) In this study subjects with diabetic neuropathic pain were administered 100 mg BID up to 6 weeks and dosing has been completed. Nevertheless, if there is any new safety signal observed during this study, dosing of Compound A can be discontinued based on the joint decision of the investigators and study sponsor's medical monitor.
(§2) Single doses of Compound A up to 170 mg were well-tolerated in healthy subjects. The Compound A dose of 100 mg twice daily (BID) is the clinical dose used in the ongoing Phase 2a study in subjects with diabetic neuropathic pain. The dose of 100 mg is selected in the current study to explore the effect of Compound A in a microneurography model in order to bridge the efficacy outcome of Compound A in the Phase 2a study.

[2] = target: T-type (Cav3.2) calcium channel (Homo sapiens, UniProt O95180); assay: T-type calcium channel block (statement of selectivity)
[3] = Phase 1 first-in-human safety, tolerability and pharmacokinetic studies of Compound A in healthy subjects; format: in vivo
Experimental: as §1, §2
The safety, tolerability, and pharmacokinetics of Compound A in humans have been evaluated in 94 healthy adult subjects in the Phase 1 first-in-human (FIH) study with the single dose up to 170 mg and multiple doses up to 160 mg for 7 to 14 days. […] Given that Compound A is an investigational drug and this study will be conducted in diabetic patient population that generally has high risk factors, inclusion and exclusion have been carefully established to avoid exposing patients to undue risk. In addition, adequate safety monitoring procedures and stopping criteria are placed in the protocol.

[4] = cited from earlier work
[5] = 94 healthy adult subjects, single dose up to 170 mg, multiple doses up to 160 mg for 7 to 14 days

T-type (Cav3.2) calcium channel, sequence (O95180 whole entry): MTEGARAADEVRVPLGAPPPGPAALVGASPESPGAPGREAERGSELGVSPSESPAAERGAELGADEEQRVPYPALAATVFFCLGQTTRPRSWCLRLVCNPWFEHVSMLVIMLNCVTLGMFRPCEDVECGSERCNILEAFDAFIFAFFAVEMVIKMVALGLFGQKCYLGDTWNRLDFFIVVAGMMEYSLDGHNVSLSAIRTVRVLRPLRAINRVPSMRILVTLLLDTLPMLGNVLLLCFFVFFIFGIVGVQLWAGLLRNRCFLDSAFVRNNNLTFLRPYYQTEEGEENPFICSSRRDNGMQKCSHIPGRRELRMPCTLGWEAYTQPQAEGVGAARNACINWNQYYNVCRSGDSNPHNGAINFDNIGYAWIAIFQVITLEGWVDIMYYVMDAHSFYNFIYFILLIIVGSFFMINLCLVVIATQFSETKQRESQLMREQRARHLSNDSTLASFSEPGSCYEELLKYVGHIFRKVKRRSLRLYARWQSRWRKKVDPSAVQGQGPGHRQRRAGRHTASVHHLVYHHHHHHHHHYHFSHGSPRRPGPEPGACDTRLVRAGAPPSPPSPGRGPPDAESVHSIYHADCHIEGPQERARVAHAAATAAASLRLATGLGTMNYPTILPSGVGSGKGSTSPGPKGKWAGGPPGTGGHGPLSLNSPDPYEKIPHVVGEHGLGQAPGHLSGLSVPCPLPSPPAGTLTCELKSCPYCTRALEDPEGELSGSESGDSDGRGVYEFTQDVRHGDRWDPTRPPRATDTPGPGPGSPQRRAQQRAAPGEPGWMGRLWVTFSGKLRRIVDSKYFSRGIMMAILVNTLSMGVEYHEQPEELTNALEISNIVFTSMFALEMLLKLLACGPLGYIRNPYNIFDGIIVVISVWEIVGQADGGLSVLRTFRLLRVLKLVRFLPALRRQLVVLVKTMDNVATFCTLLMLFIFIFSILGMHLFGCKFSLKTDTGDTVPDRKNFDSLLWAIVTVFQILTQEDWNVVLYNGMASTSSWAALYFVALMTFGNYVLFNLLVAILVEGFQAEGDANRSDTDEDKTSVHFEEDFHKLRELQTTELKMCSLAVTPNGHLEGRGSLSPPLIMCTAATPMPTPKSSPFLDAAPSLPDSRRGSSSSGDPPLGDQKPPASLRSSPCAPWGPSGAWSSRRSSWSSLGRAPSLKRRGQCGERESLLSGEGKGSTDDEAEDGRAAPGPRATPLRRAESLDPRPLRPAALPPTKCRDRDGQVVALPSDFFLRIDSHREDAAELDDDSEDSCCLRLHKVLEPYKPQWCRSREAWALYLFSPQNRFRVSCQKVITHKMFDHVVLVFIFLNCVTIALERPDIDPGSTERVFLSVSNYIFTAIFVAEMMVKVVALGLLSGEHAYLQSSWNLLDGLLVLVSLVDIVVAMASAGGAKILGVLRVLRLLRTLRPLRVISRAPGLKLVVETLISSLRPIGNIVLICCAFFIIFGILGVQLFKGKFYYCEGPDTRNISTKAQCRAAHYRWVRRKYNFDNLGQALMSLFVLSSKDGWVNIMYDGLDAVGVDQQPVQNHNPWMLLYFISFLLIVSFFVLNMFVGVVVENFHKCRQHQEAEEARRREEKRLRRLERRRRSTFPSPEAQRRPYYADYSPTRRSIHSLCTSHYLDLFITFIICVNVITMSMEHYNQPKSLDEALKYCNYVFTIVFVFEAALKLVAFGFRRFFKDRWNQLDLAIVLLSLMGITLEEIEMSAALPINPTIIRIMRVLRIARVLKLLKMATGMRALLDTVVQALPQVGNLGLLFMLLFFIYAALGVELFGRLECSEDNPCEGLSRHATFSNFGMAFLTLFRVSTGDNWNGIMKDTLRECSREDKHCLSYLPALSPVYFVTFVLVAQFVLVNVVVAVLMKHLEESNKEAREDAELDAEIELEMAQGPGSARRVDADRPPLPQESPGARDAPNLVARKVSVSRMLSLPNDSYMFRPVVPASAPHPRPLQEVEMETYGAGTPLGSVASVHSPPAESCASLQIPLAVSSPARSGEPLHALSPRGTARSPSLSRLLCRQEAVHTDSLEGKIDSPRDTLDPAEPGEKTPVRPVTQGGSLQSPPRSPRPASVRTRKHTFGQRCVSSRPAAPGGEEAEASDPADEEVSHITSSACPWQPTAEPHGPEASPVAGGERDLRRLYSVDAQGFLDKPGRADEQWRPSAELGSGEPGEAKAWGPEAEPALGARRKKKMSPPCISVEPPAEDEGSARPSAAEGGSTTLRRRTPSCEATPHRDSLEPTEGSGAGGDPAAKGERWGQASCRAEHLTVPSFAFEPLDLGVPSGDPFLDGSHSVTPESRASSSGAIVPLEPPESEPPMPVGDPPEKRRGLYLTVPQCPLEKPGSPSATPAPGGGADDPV

## O=C(c1cc(S(=O)(=O)Nc2ccccc2F)c(F)cc1Cl)N1CCN2CCC[C@@H]2C1 [Compound A, 4-chloro-2-fluoro-N-(2-fluorophenyl)-5-[(8aR)-hexahydropyrrolo[1,2-a]pyrazin-2(1H)-ylcarbonyl]benzenesulfonamide]
[1]
  safety findings: no clinically important safety findings
[2]
  selectivity as calcium channel blocker: highly selective
[3]; 94 healthy adult subjects, single dose up to 170 mg and multiple doses up to 160 mg for 7 to 14 days
  tolerability: well tolerated
[3]; [5]
  dose dependence of occurrence of adverse events: does not appear to be dose-dependent
  findings in vital signs, ECG and laboratory tests: no clinically relevant findings
  severity of adverse events: mild except one event
[3]; Phase 1 studies in healthy adults and healthy elderly subjects
  safety findings: no clinically important safety findings
[3]; current clinical program
  adverse drug reactions in the current clinical program: no adverse drug reactions identified
[3]; single doses up to 170 mg, healthy subjects
  tolerability of single doses: well-tolerated

## CCN(CC)CC(=O)Nc1c(C)cccc1C [Lidocaine]
[4]; IV infusion 2 mg/kg or 5 mg/kg, patients with painful diabetic neuropathy
  effect on pain: reduction of pain
[4]; IV infusion 5 mg/kg, patients with painful diabetic neuropathy
  pain relief versus placebo: consistent superiority to placebo
[4]; patients with diabetic neuropathy
  duration of pain relief following infusion: up to 21 days
[4]; systemic administration, several neuropathic pain conditions
  effect of systemic administration in neuropathic pain conditions: analgesic effects
